Article PMC5078040 (Oncotarget, 2016)

Experiments:
PI3Kδ = PI3Kδ (Homo sapiens, UniProt O00329); test: Kinase kinetic assay (ATP competition, ADP-Glo); type: biochemical; details: varied ATP concentration
Protocol: Kinetic analyses of PI3KCD were performed using a luminometric kinase assay varying the concentration of ATP using the ADP-Glo reagents (Promega). […] After 60 min incubation at RT, varied concentrations of ATP, 0.1mM substrate PIP2:PS were added and incubated for 60 min at 37°C. The overall rate of reaction was determined as the slope of the decreasing phase of the reaction. Each data point was collected in duplicate and kinetic parameters were obtained using Prism 5.0 (GraphPad Software, San Diego, CA).

[1] = biological target: T1, ABL1(F317L)-phosphorylated (Homo sapiens, UniProt P00519, F317L); test: KinomeScan; type: binding; details: 1uM
T1 construct: purchased DiscoveRx KINOMEscan

[2] = biological target: T2, ABL1(Y253F)-phosphorylated (Homo sapiens, UniProt P00519, Y253F); test: KinomeScan; type: binding; details: 1uM
T2 construct: purchased DiscoveRx KINOMEscan

ACVR1 = biological target: T3, ACVR1 (Homo sapiens, UniProt Q04771); test: KinomeScan; type: binding; details: 1uM
T3 construct: purchased DiscoveRx KINOMEscan

ADCK3 = biological target: T4, ADCK3 (Homo sapiens, UniProt Q8NI60); test: KinomeScan; type: binding; details: 1uM
T4 construct: purchased DiscoveRx KINOMEscan

AMPK-alpha1 = biological target: T5, AMPK-alpha1 (Homo sapiens, UniProt Q13131); test: KinomeScan; type: binding; details: 1uM
T5 construct: purchased DiscoveRx KINOMEscan

BRAF(V600E) = biological target: T6, BRAF(V600E) (Homo sapiens, UniProt P15056, V600E); test: KinomeScan; type: binding; details: 1uM
T6 construct: purchased DiscoveRx KINOMEscan

BUB1 = biological target: T7, BUB1 (Homo sapiens, UniProt O43683); test: KinomeScan; type: binding; details: 1uM
T7 construct: purchased DiscoveRx KINOMEscan

CDK7 = biological target: T8, CDK7 (Homo sapiens, UniProt P50613); test: KinomeScan; type: binding; details: 1uM
T8 construct: purchased DiscoveRx KINOMEscan

CSNK1G3 = biological target: T9, CSNK1G3 (Homo sapiens, UniProt Q9Y6M4); test: KinomeScan; type: binding; details: 1uM
T9 construct: purchased DiscoveRx KINOMEscan

DAPK3 = biological target: T10, DAPK3 (Homo sapiens, UniProt O43293); test: KinomeScan; type: binding; details: 1uM
T10 construct: purchased DiscoveRx KINOMEscan

EGFR(T790M) = biological target: T11, EGFR(T790M) (Homo sapiens, UniProt P00533, T790M); test: KinomeScan; type: binding; details: 1uM
T11 construct: purchased DiscoveRx KINOMEscan

EPHA8 = biological target: T12, EPHA8 (Homo sapiens, UniProt P29322); test: KinomeScan; type: binding; details: 1uM
T12 construct: purchased DiscoveRx KINOMEscan

ERK2 = biological target: T13, ERK2 (Homo sapiens, UniProt P28482); test: KinomeScan; type: binding; details: 1uM
T13 construct: purchased DiscoveRx KINOMEscan

HASPIN = biological target: T14, HASPIN (Homo sapiens, UniProt Q8TF76); test: KinomeScan; type: binding; details: 1uM
T14 construct: purchased DiscoveRx KINOMEscan

HIPK1 = biological target: T15, HIPK1 (Homo sapiens, UniProt Q86Z02); test: KinomeScan; type: binding; details: 1uM
T15 construct: purchased DiscoveRx KINOMEscan

INSRR = biological target: T16, INSRR (Homo sapiens, UniProt P14616); test: KinomeScan; type: binding; details: 1uM
T16 construct: purchased DiscoveRx KINOMEscan

KIT(D816V) = biological target: T17, KIT(D816V) (Homo sapiens, UniProt P10721, D816V); test: KinomeScan; type: binding; details: 1uM
T17 construct: purchased DiscoveRx KINOMEscan

LTK = biological target: T18, LTK (Homo sapiens, UniProt P29376); test: KinomeScan; type: binding; details: 1uM
T18 construct: purchased DiscoveRx KINOMEscan

MAP3K3 = biological target: T19, MAP3K3 (Homo sapiens, UniProt Q99759); test: KinomeScan; type: binding; details: 1uM
T19 construct: purchased DiscoveRx KINOMEscan

MAP4K2 = biological target: T20, MAP4K2 (Homo sapiens, UniProt Q12851); test: KinomeScan; type: binding; details: 1uM
T20 construct: purchased DiscoveRx KINOMEscan

MEK5 = biological target: T21, MEK5 (Homo sapiens, UniProt Q13163); test: KinomeScan; type: binding; details: 1uM
T21 construct: purchased DiscoveRx KINOMEscan

MEK6 = biological target: T22, MEK6 (Homo sapiens, UniProt P52564); test: KinomeScan; type: binding; details: 1uM
T22 construct: purchased DiscoveRx KINOMEscan

MKNK1 = biological target: T23, MKNK1 (Homo sapiens, UniProt Q9BUB5); test: KinomeScan; type: binding; details: 1uM
T23 construct: purchased DiscoveRx KINOMEscan

MRCKA = biological target: T24, MRCKA (Homo sapiens, UniProt Q5VT25); test: KinomeScan; type: binding; details: 1uM
T24 construct: purchased DiscoveRx KINOMEscan

NEK1 = biological target: T25, NEK1 (Homo sapiens, UniProt Q96PY6); test: KinomeScan; type: binding; details: 1uM
T25 construct: purchased DiscoveRx KINOMEscan

NEK3 = biological target: T26, NEK3 (Homo sapiens, UniProt P51956); test: KinomeScan; type: binding; details: 1uM
T26 construct: purchased DiscoveRx KINOMEscan

NEK6 = biological target: T27, NEK6 (Homo sapiens, UniProt Q9HC98); test: KinomeScan; type: binding; details: 1uM
T27 construct: purchased DiscoveRx KINOMEscan

p38-alpha = biological target: T28, p38-alpha (Homo sapiens, UniProt Q16539); test: KinomeScan; type: binding; details: 1uM
T28 construct: purchased DiscoveRx KINOMEscan

p38-gamma = biological target: T29, p38-gamma (Homo sapiens, UniProt P53778); test: KinomeScan; type: binding; details: 1uM
T29 construct: purchased DiscoveRx KINOMEscan

PKAC-beta = biological target: T30, PKAC-beta (Homo sapiens, UniProt P22694); test: KinomeScan; type: binding; details: 1uM
T30 construct: purchased DiscoveRx KINOMEscan

PRKCD = biological target: T31, PRKCD (Homo sapiens, UniProt Q05655); test: KinomeScan; type: binding; details: 1uM
T31 construct: purchased DiscoveRx KINOMEscan

PRKCI = biological target: T32, PRKCI (Homo sapiens, UniProt P41743); test: KinomeScan; type: binding; details: 1uM
T32 construct: purchased DiscoveRx KINOMEscan

PRKCQ = biological target: T33, PRKCQ (Homo sapiens, UniProt Q04759); test: KinomeScan; type: binding; details: 1uM
T33 construct: purchased DiscoveRx KINOMEscan

STK33 = biological target: T34, STK33 (Homo sapiens, UniProt Q9BYT3); test: KinomeScan; type: binding; details: 1uM
T34 construct: purchased DiscoveRx KINOMEscan

STK35 = biological target: T35, STK35 (Homo sapiens, UniProt Q8TDR2); test: KinomeScan; type: binding; details: 1uM
T35 construct: purchased DiscoveRx KINOMEscan

TIE1 = biological target: T36, TIE1 (Homo sapiens, UniProt P35590); test: KinomeScan; type: binding; details: 1uM
T36 construct: purchased DiscoveRx KINOMEscan

TNK1 = biological target: T37, TNK1 (Homo sapiens, UniProt Q13470); test: KinomeScan; type: binding; details: 1uM
T37 construct: purchased DiscoveRx KINOMEscan

TRPM6 = biological target: T38, TRPM6 (Homo sapiens, UniProt Q9BX84); test: KinomeScan; type: binding; details: 1uM
T38 construct: purchased DiscoveRx KINOMEscan

YANK1 = biological target: T39, YANK1 (Homo sapiens, UniProt Q8WU08); test: KinomeScan; type: binding; details: 1uM
T39 construct: purchased DiscoveRx KINOMEscan

Vps34 = biological target: T40, Vps34 (Homo sapiens, UniProt Q8NEB9); test: ADP-glo biochemical assay
T40 construct: purchased Invitrogen
Protocol: The reaction in each tube was started immediately by adding ATP and kept going for an hour under 37°C. After the tube cooled for 5 minutes at room temperature, 5 μL solvent reactions were carried out in a 384-well plate. Then 5 μL of ADP-Glo™ reagent was added into each well to stop the reaction and consume the remaining ADP within 40 minutes. At the end, 10 μL of kinase detection reagent was added into the well and incubated for 30 minutes to produce a luminescence signal. Luminescence signal was measured with an automated plate reader (Perkin-Elmer Envision) and each measurement was performed in triplicate.

T14 sequence (Q8TF76 whole entry): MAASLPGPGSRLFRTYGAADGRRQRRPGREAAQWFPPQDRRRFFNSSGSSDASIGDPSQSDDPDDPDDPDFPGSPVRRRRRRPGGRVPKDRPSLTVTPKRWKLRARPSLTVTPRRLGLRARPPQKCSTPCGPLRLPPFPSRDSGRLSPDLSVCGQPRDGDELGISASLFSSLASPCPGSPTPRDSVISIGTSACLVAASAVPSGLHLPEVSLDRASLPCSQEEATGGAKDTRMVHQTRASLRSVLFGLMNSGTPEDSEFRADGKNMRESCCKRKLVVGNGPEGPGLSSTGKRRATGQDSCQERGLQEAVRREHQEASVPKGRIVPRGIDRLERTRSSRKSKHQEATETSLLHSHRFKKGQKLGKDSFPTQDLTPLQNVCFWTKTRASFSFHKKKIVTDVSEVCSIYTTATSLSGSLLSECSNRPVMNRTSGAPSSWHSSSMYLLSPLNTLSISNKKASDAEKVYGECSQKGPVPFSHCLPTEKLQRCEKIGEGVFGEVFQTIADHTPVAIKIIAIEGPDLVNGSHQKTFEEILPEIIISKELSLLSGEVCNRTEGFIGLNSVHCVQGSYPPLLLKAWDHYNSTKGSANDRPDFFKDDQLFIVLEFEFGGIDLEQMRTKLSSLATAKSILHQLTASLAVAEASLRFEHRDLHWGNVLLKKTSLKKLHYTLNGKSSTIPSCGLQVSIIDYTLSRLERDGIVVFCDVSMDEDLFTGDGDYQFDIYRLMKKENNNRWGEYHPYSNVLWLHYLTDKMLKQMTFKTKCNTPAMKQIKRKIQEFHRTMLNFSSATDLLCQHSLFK
T10 sequence (O43293 whole entry): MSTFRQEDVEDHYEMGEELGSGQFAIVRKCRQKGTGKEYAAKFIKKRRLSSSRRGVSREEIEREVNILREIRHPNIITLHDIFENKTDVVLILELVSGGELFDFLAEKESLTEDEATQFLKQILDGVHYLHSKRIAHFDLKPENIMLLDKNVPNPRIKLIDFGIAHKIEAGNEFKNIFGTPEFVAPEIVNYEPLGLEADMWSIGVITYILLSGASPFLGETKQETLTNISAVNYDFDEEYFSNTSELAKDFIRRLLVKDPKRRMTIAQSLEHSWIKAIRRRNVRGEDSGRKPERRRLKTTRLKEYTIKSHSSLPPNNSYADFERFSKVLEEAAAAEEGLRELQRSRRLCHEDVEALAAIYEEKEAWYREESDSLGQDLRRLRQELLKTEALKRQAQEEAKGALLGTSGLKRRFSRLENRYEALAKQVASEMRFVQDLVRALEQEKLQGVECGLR
T16 sequence (P14616 27-1297): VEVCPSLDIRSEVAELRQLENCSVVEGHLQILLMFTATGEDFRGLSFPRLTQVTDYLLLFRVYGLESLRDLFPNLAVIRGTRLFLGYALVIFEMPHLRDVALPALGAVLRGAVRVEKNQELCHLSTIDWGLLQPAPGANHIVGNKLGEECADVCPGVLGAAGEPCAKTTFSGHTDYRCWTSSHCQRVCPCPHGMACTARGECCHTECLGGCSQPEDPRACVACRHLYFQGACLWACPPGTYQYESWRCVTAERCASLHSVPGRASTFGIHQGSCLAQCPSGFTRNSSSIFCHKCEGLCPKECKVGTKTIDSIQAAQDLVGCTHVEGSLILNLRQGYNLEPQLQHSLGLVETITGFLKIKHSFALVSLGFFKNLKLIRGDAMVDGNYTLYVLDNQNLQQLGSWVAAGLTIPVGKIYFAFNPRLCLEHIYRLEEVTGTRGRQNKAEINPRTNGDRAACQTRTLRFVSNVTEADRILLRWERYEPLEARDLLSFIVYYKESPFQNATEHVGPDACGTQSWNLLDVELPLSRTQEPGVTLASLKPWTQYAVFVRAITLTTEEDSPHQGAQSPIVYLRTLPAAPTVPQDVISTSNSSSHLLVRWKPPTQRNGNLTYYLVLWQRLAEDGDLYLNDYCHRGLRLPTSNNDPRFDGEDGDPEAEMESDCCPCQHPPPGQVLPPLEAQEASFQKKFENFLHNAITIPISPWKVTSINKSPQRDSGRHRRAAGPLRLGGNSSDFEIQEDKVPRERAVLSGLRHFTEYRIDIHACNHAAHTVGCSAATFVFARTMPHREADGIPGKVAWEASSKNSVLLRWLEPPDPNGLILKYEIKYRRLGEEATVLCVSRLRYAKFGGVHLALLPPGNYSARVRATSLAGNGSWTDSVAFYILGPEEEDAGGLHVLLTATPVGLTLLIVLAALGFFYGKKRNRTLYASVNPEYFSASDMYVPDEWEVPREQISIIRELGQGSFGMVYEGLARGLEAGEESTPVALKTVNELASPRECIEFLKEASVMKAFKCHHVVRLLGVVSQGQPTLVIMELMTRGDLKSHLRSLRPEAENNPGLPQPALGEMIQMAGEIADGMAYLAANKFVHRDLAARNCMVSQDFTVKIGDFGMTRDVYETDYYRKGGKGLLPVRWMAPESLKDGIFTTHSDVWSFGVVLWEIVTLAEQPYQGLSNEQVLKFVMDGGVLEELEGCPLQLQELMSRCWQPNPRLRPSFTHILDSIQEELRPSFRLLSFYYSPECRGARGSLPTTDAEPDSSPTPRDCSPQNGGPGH
T9 sequence (Q9Y6M4 whole entry): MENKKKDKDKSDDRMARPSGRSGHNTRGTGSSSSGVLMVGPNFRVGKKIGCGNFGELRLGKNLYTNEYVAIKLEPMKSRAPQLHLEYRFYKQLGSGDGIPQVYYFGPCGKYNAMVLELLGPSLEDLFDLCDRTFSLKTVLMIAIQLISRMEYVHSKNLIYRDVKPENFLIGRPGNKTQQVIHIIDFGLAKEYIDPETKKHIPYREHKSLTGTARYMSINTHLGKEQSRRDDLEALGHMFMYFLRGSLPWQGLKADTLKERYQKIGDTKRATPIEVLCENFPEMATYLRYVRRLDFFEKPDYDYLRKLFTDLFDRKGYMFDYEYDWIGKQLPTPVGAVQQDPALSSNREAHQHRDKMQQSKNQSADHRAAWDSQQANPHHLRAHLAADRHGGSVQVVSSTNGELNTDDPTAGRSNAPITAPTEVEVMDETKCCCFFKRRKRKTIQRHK
T11 sequence (P00533 25-1210 T790M): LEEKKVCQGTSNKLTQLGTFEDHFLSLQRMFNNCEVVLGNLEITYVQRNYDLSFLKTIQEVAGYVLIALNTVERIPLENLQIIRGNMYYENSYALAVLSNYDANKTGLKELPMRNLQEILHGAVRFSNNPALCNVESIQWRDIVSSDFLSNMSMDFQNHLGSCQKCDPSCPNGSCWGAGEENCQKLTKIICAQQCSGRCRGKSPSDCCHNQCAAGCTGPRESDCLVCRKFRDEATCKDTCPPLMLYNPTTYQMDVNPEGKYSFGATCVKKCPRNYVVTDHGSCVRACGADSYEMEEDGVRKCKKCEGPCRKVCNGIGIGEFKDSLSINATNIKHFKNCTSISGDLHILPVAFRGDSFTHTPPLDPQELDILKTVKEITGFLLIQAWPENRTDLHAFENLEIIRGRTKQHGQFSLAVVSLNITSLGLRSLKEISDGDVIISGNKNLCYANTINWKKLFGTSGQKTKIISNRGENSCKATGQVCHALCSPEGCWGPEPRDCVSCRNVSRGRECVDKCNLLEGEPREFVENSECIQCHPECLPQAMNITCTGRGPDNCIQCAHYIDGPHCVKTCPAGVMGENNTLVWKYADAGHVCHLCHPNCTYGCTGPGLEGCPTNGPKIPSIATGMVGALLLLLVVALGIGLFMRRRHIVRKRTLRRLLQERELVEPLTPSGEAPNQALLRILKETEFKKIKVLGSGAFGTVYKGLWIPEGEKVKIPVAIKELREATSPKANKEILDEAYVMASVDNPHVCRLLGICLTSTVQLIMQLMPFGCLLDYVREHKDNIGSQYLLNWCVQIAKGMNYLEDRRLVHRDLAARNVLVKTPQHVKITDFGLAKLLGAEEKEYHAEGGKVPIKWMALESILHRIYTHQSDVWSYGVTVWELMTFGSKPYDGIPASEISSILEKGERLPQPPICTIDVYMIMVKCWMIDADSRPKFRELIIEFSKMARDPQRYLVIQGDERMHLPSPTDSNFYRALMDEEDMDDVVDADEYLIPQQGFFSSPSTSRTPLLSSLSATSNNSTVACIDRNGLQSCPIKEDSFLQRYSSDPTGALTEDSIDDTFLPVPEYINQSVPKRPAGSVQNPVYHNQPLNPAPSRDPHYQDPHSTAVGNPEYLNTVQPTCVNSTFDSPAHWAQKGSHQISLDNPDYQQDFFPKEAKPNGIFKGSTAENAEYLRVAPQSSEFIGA
T19 sequence (Q99759 whole entry): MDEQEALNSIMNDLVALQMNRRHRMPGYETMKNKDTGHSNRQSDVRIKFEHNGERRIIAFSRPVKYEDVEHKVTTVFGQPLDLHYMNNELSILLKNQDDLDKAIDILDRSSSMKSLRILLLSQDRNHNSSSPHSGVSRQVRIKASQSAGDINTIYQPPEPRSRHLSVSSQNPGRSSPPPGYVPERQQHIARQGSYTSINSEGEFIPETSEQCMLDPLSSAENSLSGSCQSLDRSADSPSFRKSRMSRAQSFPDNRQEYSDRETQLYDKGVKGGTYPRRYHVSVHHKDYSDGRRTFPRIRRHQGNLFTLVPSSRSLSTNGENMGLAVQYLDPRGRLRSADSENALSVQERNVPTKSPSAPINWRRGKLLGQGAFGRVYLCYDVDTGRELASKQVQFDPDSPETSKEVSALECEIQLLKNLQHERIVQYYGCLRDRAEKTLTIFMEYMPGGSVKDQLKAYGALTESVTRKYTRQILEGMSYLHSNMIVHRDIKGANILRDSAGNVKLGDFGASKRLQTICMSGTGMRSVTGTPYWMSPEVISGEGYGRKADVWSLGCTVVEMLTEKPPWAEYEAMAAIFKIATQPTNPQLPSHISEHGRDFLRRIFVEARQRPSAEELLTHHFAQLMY

`Cc1nc(NC(=O)[C@@H](N)C(C)C)sc1-c1cnc(Cl)c(NS(=O)(=O)c2ccccc2)c1` [PI3KD-IN-015] was tested, and the “binding kinetics / mode of inhibition” value (PI3Kδ) was “ATP competitive inhibitor”, the “KinomeScan ABL1(F317L)-phosphorylated” value [1] was 99 and the “KinomeScan ABL1(Y253F)-phosphorylated” value [2] was 100. The “KinomeScan ACVR1” value (ACVR1) was 100, the “KinomeScan ADCK3” value (ADCK3) was 100 and the “KinomeScan AMPK-alpha1” value (AMPK-alpha1) was 100. The “KinomeScan BRAF(V600E)” value (BRAF(V600E)) was 100, the “KinomeScan BUB1” value (BUB1) was 100 and the “KinomeScan CDK7” value (CDK7) was 100. The “KinomeScan CSNK1G3” value (CSNK1G3) was 96, the “KinomeScan DAPK3” value (DAPK3) was 91 and the “KinomeScan EGFR(T790M)” value (EGFR(T790M)) was 70. For the same compound, the “KinomeScan EPHA8” value (EPHA8) was 100, the “KinomeScan ERK2” value (ERK2) was 100 and the “KinomeScan HASPIN” value (HASPIN) was 94. For the same compound, the “KinomeScan HIPK1” value (HIPK1) was 96, the “KinomeScan INSRR” value (INSRR) was 97 and the “KinomeScan KIT(D816V)” value (KIT(D816V)) was 100. The “KinomeScan LTK” value (LTK) was 100, the “KinomeScan MAP3K3” value (MAP3K3) was 100 and the “KinomeScan MAP4K2” value (MAP4K2) was 91. For the same compound, the “KinomeScan MEK5” value (MEK5) was 94, the “KinomeScan MEK6” value (MEK6) was 100 and the “KinomeScan MKNK1” value (MKNK1) was 100. For the same compound, the “KinomeScan MRCKA” value (MRCKA) was 94, the “KinomeScan NEK1” value (NEK1) was 100 and the “KinomeScan NEK3” value (NEK3) was 100. For the same compound, the “KinomeScan NEK6” value (NEK6) was 100, the “KinomeScan p38-alpha” value (p38-alpha) was 100 and the “KinomeScan p38-gamma” value (p38-gamma) was 86. The “KinomeScan PKAC-beta” value (PKAC-beta) was 87, the “KinomeScan PRKCD” value (PRKCD) was 100 and the “KinomeScan PRKCI” value (PRKCI) was 100. The “KinomeScan PRKCQ” value (PRKCQ) was 100, the “KinomeScan STK33” value (STK33) was 88 and the “KinomeScan STK35” value (STK35) was 92. For the same compound, the “KinomeScan TIE1” value (TIE1) was 94, the “KinomeScan TNK1” value (TNK1) was 100 and the “KinomeScan TRPM6” value (TRPM6) was 100. The “KinomeScan YANK1” value (YANK1) was 100 and the IC50 (Vps34) was 280 nM.
